Data: paper PMC3714282, “Pharmacometabolomics of Response to Sertraline and to Placebo in Major Depressive Disorder – Possible Role for Methoxyindole Pathway” (PLoS ONE, 2013)

Test system: serum metabolites (tryptophan, tyrosine, purine pathways, antioxidants)
Assay: LCECA metabolomic profiling of serum: change from baseline at week 1 and week 4 (all, responders, non-responders)
Assay type: in vivo, human
Source text: Study participants were outpatients, 18–65 years of age, from various clinical sites across the United States. […] A complete description of the inclusion and exclusion used in this study can be found in Table S1. The study protocol was developed in accordance with the principles of the Declaration of Helsinki. All patients provided written informed consent. The study was sponsored and monitored by Pfizer, Inc. Each site's institutional review board approved and oversaw the study. The primary outcome measure was the HAMD17, used to assess depressive symptom severity. Measures were gathered at baseline, and weeks 1 and 4 of treatment at the patient's visits. Serum samples were collected using standard protocol at baseline, week 1 and week 4 of treatment at the clinic visits. Whole blood was collected in serum collection tubes and inverted 5–8 times. Serum samples were allowed to clot at room temperature for 60 minutes and then centrifuged at 1,300×g for 15 minutes. Following centrifugation supernatant was frozen at −80°C until analysis.
Samples were analyzed using a liquid chromatography electrochemical array (LCECA) platform that has been extensively validated and used in our prior studies in neurodegenerative and psychiatric disorders [30]–[34]. The method includes multiple compounds from the tyrosine, tryptophan, sulfur amino acids and purine pathways, and markers of oxidative stress and protection (for the list of metabolites and abbreviations see Table 1). Levels of 5-Methoxytryptamine (5-MTPM) were measured using a gas chromatography time-of-flight-mass spectrometry (GCTOF-MS) platform. Samples were prepared for analysis as previously described. During the sample preparation, pools were created from equal volumes of subaliquots of all samples. Concentrations of metabolites in the individual samples were expressed as a percentage of the concentration of those metabolites in the averaged pool.
Data preprocessing: We first removed the metabolites that have more than 40% missing values. […] Principal components analysis (PCA; SIMCA-P+12.0) was used to identify outliers. The analysis was performed for each time point. […] Subjects with ≥3 standard deviations away from the center of data cloud within two principal components (PC's) scores scatter plot were considered outliers and were removed from further analysis.
These analyses were conducted separately for the sertraline and placebo groups. Between groups t-tests were used to compare baseline to one week and baseline to four week change scores between the sertraline and placebo groups.
Signatures of response to sertraline and placebo were identified by using paired t-tests to compare week 4 metabolite levels to baseline metabolite levels in the responders and non-responders to therapy. […] These analyses were also performed to evaluate changes in ratios of individual metabolites within (e.g., 5-HT/5-HTP) and between branches of tryptophan pathway (e.g., KYN/MEL).

[1] = after four week of treatment, non-responders
[2] = after four week of treatment, responders
[3] = after one week of treatment, non-responders
[4] = serum, four weeks, non-responders to sertraline
[5] = serum, four weeks, poor response to sertraline
[6] = serum, four weeks, responders to sertraline
[7] = serum, log-transformed concentration, after four weeks, sertraline group

CN[C@H]1CC[C@@H](c2ccc(Cl)c(Cl)c2)c2ccccc21 [Sertraline, sertraline]
Change of 3-OHKY (average change of log-transformed concentration) [1]: 0.013 | Change of 3-OMD (average change of log-transformed concentration) [1]: -0.048 | Change of 4-HBAC (average change of log-transformed concentration) [1]: 0.19 | Change of 4-HPAC (average change of log-transformed concentration) [1]: 0.14 | Change of 4-HPLA (average change of log-transformed concentration) [1]: 0.11 | Change of 5-HIAA (average change of log-transformed concentration) [1]: -0.077 | Change of 5-HT (average change of log-transformed concentration) [1]: -1.6 | Change of 5-HTP (average change of log-transformed concentration) [1]: 0.24 | Change of 5-MTPOL (average change of log-transformed concentration) [1]: 0.093 | Change of 7-MXAN (average change of log-transformed concentration) [1]: 0.56 | Change of ATOCO (average change of log-transformed concentration) [1]: 0.47 | Change of CYS (average change of log-transformed concentration) [1]: -0.014 | Change of DIOHMAL (average change of log-transformed concentration) [1]: 0.25 | Change of DOPAC (average change of log-transformed concentration) [1]: -0.099 | Change of DTOCO (average change of log-transformed concentration) [1]: 0.52 | Change of GR (average change of log-transformed concentration) [1]: 0.31 | Change of GRMP (average change of log-transformed concentration) [1]: -0.16 | Change of GSH (average change of log-transformed concentration) [1]: -0.084 | Change of HGA (average change of log-transformed concentration) [1]: 0.63 | Change of HVA (average change of log-transformed concentration) [1]: 0.085 | Change of HX (average change of log-transformed concentration) [1]: 0.014 | Change of KYN (average change of log-transformed concentration) [1]: 0.066 | Change of LD (average change of log-transformed concentration) [1]: 0.35 | Change of MEL (average change of log-transformed concentration) [1]: 0.26 | Change of METH (average change of log-transformed concentration) [1]: 0.3 | Change of MHPG (average change of log-transformed concentration) [1]: -0.28 | Change of NA-5-HT (average change of log-transformed concentration) [1]: 0.0044 | Change of TRP (average change of log-transformed concentration) [1]: 0.11 | Change of TRPOL (average change of log-transformed concentration) [1]: 0.053 | Change of TYR (average change of log-transformed concentration) [1]: -0.11 | Change of UA (average change of log-transformed concentration) [1]: -0.095 | Change of VMA (average change of log-transformed concentration) [1]: 0.058 | Change of XAN (average change of log-transformed concentration) [1]: -0.19 | Change of XANTH (average change of log-transformed concentration) [1]: 0.098 | Change of 3-OHKY (average change of log-transformed concentration) [2]: 0.071 | Change of 3-OMD (average change of log-transformed concentration) [2]: 0.19 | Change of 4-HBAC (average change of log-transformed concentration) [2]: 0.07 | Change of 4-HPAC (average change of log-transformed concentration) [2]: 0.37 | Change of 4-HPLA (average change of log-transformed concentration) [2]: 0.14 | Change of 5-HIAA (average change of log-transformed concentration) [2]: -0.046 | Change of 5-HT (average change of log-transformed concentration) [2]: -2.2 | Change of 5-HTP (average change of log-transformed concentration) [2]: 0.014 | Change of 5-MTPOL (average change of log-transformed concentration) [2]: 0.17 | Change of 7-MXAN (average change of log-transformed concentration) [2]: -0.32 | Change of ATOCO (average change of log-transformed concentration) [2]: 0.76 | Change of CYS (average change of log-transformed concentration) [2]: 0.0094 | Change of DIOHMAL (average change of log-transformed concentration) [2]: 0.47 | Change of DOPAC (average change of log-transformed concentration) [2]: 0.058 | Change of DTOCO (average change of log-transformed concentration) [2]: 0.88 | Change of GR (average change of log-transformed concentration) [2]: -0.26 | Change of GRMP (average change of log-transformed concentration) [2]: 0.23 | Change of GSH (average change of log-transformed concentration) [2]: 0.096 | Change of HGA (average change of log-transformed concentration) [2]: 0.21 | Change of HVA (average change of log-transformed concentration) [2]: 0.12 | Change of HX (average change of log-transformed concentration) [2]: -0.022 | Change of KYN (average change of log-transformed concentration) [2]: 0.027 | Change of LD (average change of log-transformed concentration) [2]: -0.069 | Change of MEL (average change of log-transformed concentration) [2]: 0.68 | Change of METH (average change of log-transformed concentration) [2]: 0.12 | Change of MHPG (average change of log-transformed concentration) [2]: -0.16 | Change of NA-5-HT (average change of log-transformed concentration) [2]: 0.071 | Change of TRP (average change of log-transformed concentration) [2]: 0.041 | Change of TRPOL (average change of log-transformed concentration) [2]: 0.068 | Change of TYR (average change of log-transformed concentration) [2]: 0.14 | Change of UA (average change of log-transformed concentration) [2]: -0.027 | Change of VMA (average change of log-transformed concentration) [2]: -0.077 | Change of XAN (average change of log-transformed concentration) [2]: -0.14 | Change of XANTH (average change of log-transformed concentration) [2]: 0.0046 | Change of 3-OHKY (average change of log-transformed concentration) [3]: -0.11 | Change of 3-OMD (average change of log-transformed concentration) [3]: -0.082 | Change of 4-HBAC (average change of log-transformed concentration) [3]: -0.44 | Change of 4-HPAC (average change of log-transformed concentration) [3]: 0.18 | Change of 4-HPLA (average change of log-transformed concentration) [3]: 0.055 | Change of 5-HIAA (average change of log-transformed concentration) [3]: -0.19 | Change of 5-HT (average change of log-transformed concentration) [3]: -0.72 | Change of 5-HTP (average change of log-transformed concentration) [3]: -0.14 | Change of 5-MTPOL (average change of log-transformed concentration) [3]: -0.027 | Change of 7-MXAN (average change of log-transformed concentration) [3]: 0.16 | Change of ATOCO (average change of log-transformed concentration) [3]: 0.084 | Change of CYS (average change of log-transformed concentration) [3]: -0.056 | Change of DIOHMAL (average change of log-transformed concentration) [3]: 0.17 | Change of DOPAC (average change of log-transformed concentration) [3]: -0.18 | Change of DTOCO (average change of log-transformed concentration) [3]: 0.024 | Change of GR (average change of log-transformed concentration) [3]: -0.47 | Change of GRMP (average change of log-transformed concentration) [3]: -0.012 | Change of GSH (average change of log-transformed concentration) [3]: -0.0084 | Change of HGA (average change of log-transformed concentration) [3]: 0.34 | Change of HVA (average change of log-transformed concentration) [3]: 0.0025 | Change of HX (average change of log-transformed concentration) [3]: -0.066 | Change of KYN (average change of log-transformed concentration) [3]: -0.11 | Change of LD (average change of log-transformed concentration) [3]: 0.053 | Change of MEL (average change of log-transformed concentration) [3]: 0.3 | Change of METH (average change of log-transformed concentration) [3]: 0.16 | Change of MHPG (average change of log-transformed concentration) [3]: -0.072 | Change of NA-5-HT (average change of log-transformed concentration) [3]: 0.027 | Change of TRP (average change of log-transformed concentration) [3]: -0.022 | Change of TRPOL (average change of log-transformed concentration) [3]: 0.0024 | Change of TYR (average change of log-transformed concentration) [3]: -0.073 | Change of UA (average change of log-transformed concentration) [3]: -0.095 | Change of VMA (average change of log-transformed concentration) [3]: 0.12 | Change of XAN (average change of log-transformed concentration) [3]: -0.18 | Change of XANTH (average change of log-transformed concentration) [3]: 0.11 | Change in 5-HT levels [4]: significantly reduced | Change in 5-MTPOL levels [4]: not significantly changed | Change in DIOHMAL levels [4]: significantly increased | Change in MEL levels [4]: not significantly changed | Change in HGA levels [5]: Significant increases | Change in LD levels [5]: Significant increases | Change in 4-HPAC levels [6]: significantly increased | Change in 5-HT levels [6]: significant decrease | Change in 5-MTPOL levels [6]: significant increases | Change in DIOHMAL levels [6]: significantly increased | Change in MEL levels [6]: significant increases | Change 3-OHKY [7]: 0.044 | Change 3-OMD [7]: 0.079 | Change 4-HBAC [7]: 0.12 | Change 4-HPAC [7]: 0.26 | Change 4-HPLA [7]: 0.13 | Change 5-HIAA [7]: −0.06
